Reference: ChEMBL document CHEMBL1201862, “PubChem BioAssay data set” (2004)
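Five concentrations, 48 hours, 96-well plates. GI50 marks 50% less growth.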 The source made the active and inactive calls. No stated cut-off is given here; in the data, active = GI50 up to about 1.1 µM and inactive = higher.

Experiments:
Test in all cases: inhibition of tumour cell growth, NCI panel, 48 h
[1] = tested on: SK-MEL-28
[2] = tested on: SN12C
[3] = tested on: MDA-N
[4] = tested on: ACHN
[5] = tested on: IGROV-1
[6] = tested on: K562
[7] = tested on: EKVX
[8] = tested on: UACC-257
[9] = tested on: BT-549
[10] = tested on: RPMI-8226
[11] = tested on: T47D
[12] = tested on: MOLT-4
[13] = tested on: OVCAR-8
[14] = tested on: RXF 393
[15] = tested on: HCT-15
[16] = tested on: SNB-75
[17] = tested on: OVCAR-3
[18] = tested on: CAKI-1
[19] = tested on: HL-60

Compound	GI50 [1]	GI50 [2]	GI50 [3]	GI50 [4]	GI50 [5]	GI50 [6]	GI50 [7]	GI50 [8]	GI50 [9]	GI50 [10]	GI50 [11]	GI50 [12]	GI50 [13]	GI50 [14]	GI50 [15]	GI50 [16]	GI50 [17]	GI50 [18]	GI50 [19]
Cc1cn(CC2=NCC(C)(C)N2)c(=O)[nH]c1=O	> 100 µM (inactive)	> 100 µM (inactive)	> 100 µM (inactive)	> 100 µM (inactive)	> 100 µM (inactive)	> 100 µM (inactive)	> 100 µM (inactive)	> 100 µM (inactive)	> 100 µM (inactive)	> 100 µM (inactive)	> 100 µM (inactive)	> 100 µM (inactive)	> 100 µM (inactive)	> 100 µM (inactive)	> 100 µM	> 100 µM (inactive)			
C=CCSc1nc2ccccc2c(=O)n1Cc1ccco1	> 100 µM (inactive)	> 100 µM (inactive)	> 100 µM (inactive)	> 100 µM (inactive)	> 100 µM (inactive)	> 100 µM (inactive)	> 100 µM (inactive)	> 100 µM (inactive)	> 100 µM (inactive)	37.4 µM (inactive)	29.1 µM (inactive)		> 100 µM (inactive)	35.6 µM (inactive)	64.1 µM	89.1 µM (inactive)	68.7 µM (inactive)	> 100 µM (inactive)	
COC(=O)C1(O)C(c2ccccc2)=NC2(C)CCCC21 (stereo unspecified)	> 100 µM (inactive)	> 100 µM (inactive)	> 100 µM (inactive)		> 100 µM (inactive)	> 100 µM (inactive)		> 100 µM (inactive)	> 100 µM (inactive)	> 100 µM (inactive)	> 100 µM (inactive)	> 100 µM (inactive)	> 100 µM (inactive)	> 100 µM (inactive)	> 100 µM	> 100 µM (inactive)	> 100 µM (inactive)	> 100 µM (inactive)	
CCCCCCCCC/C=C1\CC(CO)(COC(=O)c2ccccc2)OC1=O (stereo unspecified)	16.7 µM (inactive)	19.2 µM (inactive)	16.6 µM (inactive)	29.8 µM (inactive)	32.1 µM (inactive)	27.9 µM (inactive)	15.3 µM (inactive)	26.5 µM (inactive)	21.8 µM (inactive)		29.1 µM (inactive)	38.2 µM (inactive)		21.1 µM (inactive)	20.7 µM	15.9 µM (inactive)	22.4 µM (inactive)	19.4 µM (inactive)	
COc1cccc(C=C2N=C(C)N(n3c(-c4ccccc4)nc4ccccc4c3=O)C2=O)c1	> 100 µM (inactive)	> 100 µM (inactive)	> 100 µM (inactive)	> 100 µM (inactive)	> 100 µM (inactive)	> 100 µM (inactive)	> 100 µM (inactive)	> 100 µM (inactive)	> 100 µM (inactive)	59 µM (inactive)	> 100 µM (inactive)	94.4 µM (inactive)	> 100 µM (inactive)		77.1 µM	56.1 µM (inactive)		> 100 µM (inactive)	> 100 µM (inactive)
CCCC1NC(=O)C(CC(C)C)NC(=O)c2cccc(n2)C(=O)NC(CC(C)C)C(=O)NC(CCC)C(=O)NC(C(=O)OC)CCCCNC1=O (stereo unspecified)	25.6 µM (inactive)	34.4 µM (inactive)	36.9 µM (inactive)		31.1 µM (inactive)	24 µM (inactive)	20.3 µM (inactive)	54.5 µM (inactive)	26.4 µM (inactive)	14.3 µM (inactive)	55 µM (inactive)	18 µM (inactive)	32.8 µM (inactive)	31.8 µM (inactive)	> 100 µM	16.5 µM (inactive)	41.7 µM (inactive)	> 100 µM (inactive)	
CC(C)OCC1CC(CC(=O)Nc2nncs2)C(=O)O1 (stereo unspecified)	> 100 µM (inactive)	> 100 µM (inactive)	> 100 µM (inactive)	> 100 µM (inactive)	> 100 µM (inactive)	> 100 µM (inactive)	> 100 µM (inactive)	> 100 µM (inactive)	> 100 µM (inactive)	> 100 µM (inactive)	> 100 µM (inactive)	> 100 µM (inactive)	> 100 µM (inactive)		> 100 µM	> 100 µM (inactive)	> 100 µM (inactive)	> 100 µM (inactive)	
